Results: ChEMBL document CHEMBL4346757, “Synthesis and biological evaluation of 7-methoxy-1-(3,4,5-trimethoxyphenyl)-4,5-dihydro-2H-benzo[e]indazoles as new colchicine site inhibitors” (Bioorg Med Chem Lett, 2019)

Legend:
[1] = system: HCT-116; assay: Antiproliferative activity against human HCT116 cells assessed as reduction in cell viability by MTT assay; type: functional, cell-based
[2] = system: SR; assay: Growth inhibition of human SR cells assessed as cell growth at 0.01 uM after 48 hrs by SRB assay relative to control; type: functional; conditions: read-out: Activity
[3] = system: KM12; assay: Growth inhibition of human KM12 cells assessed as cell growth at 0.01 uM after 48 hrs by SRB assay relative to control; type: functional; conditions: KM12, 48 h, read-out: Activity
[4] = system: SF-295; assay: Growth inhibition of human SF295 cells assessed as cell growth at 0.01 uM after 48 hrs by SRB assay relative to control; type: functional; conditions: SF-295, 48 h, read-out: Activity
[5] = system: EKVX; assay: Growth inhibition of human EKVX cells assessed as cell growth at 0.1 uM after 48 hrs by SRB assay relative to control; type: functional; conditions: read-out: Activity
[6] = system: NCI-H522; assay: Growth inhibition of human NCI-H522 cells assessed as cell growth at 0.1 uM after 48 hrs by SRB assay relative to control; type: functional; conditions: NCI-H522, 48 h, read-out: Activity
[7] = system: UACC-257; assay: Growth inhibition of human UACC257 cells assessed as cell growth at 0.1 uM after 48 hrs by SRB assay relative to control; type: functional; conditions: UACC-257, 48 h, read-out: Activity
[8] = system: SN12C; assay: Growth inhibition of human SN12C cells assessed as cell growth at 0.1 uM after 48 hrs by SRB assay relative to control; type: functional; conditions: read-out: Activity
[9] = system: UO-31; assay: Growth inhibition of human UO31 cells assessed as cell growth at 0.1 uM after 48 hrs by SRB assay relative to control; type: functional; conditions: UO-31, 48 h, read-out: Activity
[10] = system: NCI-H522; assay: Growth inhibition of human NCI-H522 cells assessed as cell growth at 1 uM after 48 hrs by SRB assay relative to control; type: functional; conditions: NCI-H522, 48 h, read-out: Activity
[11] = system: SF-295; assay: Growth inhibition of human SF295 cells assessed as cell growth at 1 uM after 48 hrs by SRB assay relative to control; type: functional; conditions: SF-295, 48 h, read-out: Activity
[12] = system: OVCAR-3; assay: Growth inhibition of human OVCAR3 cells assessed as cell growth at 1 uM after 48 hrs by SRB assay relative to control; type: functional; conditions: OVCAR-3, 48 h, read-out: Activity
[13] = system: NCI/ADR-RES; assay: Growth inhibition of human NCI-ADR-RES cells assessed as cell growth at 1 uM after 48 hrs by SRB assay relative to control; type: functional; conditions: read-out: Activity
[14] = system: SK-OV-3; assay: Growth inhibition of human SKOV3 cells assessed as cell growth at 1 uM after 48 hrs by SRB assay relative to control; type: functional; conditions: SK-OV-3, 48 h, read-out: Activity
[15] = system: UO-31; assay: Growth inhibition of human UO31 cells assessed as cell growth at 1 uM after 48 hrs by SRB assay relative to control; type: functional; conditions: UO-31, 48 h, read-out: Activity
[16] = system: T47D; assay: Growth inhibition of human T47D cells assessed as cell growth at 1 uM after 48 hrs by SRB assay relative to control; type: functional; conditions: read-out: Activity
[17] = system: K562; assay: Growth inhibition of human K562 cells assessed as cell growth at 10 uM after 48 hrs by SRB assay relative to control; type: functional; conditions: K562, 48 h, read-out: Activity
[18] = system: MOLT-4; assay: Growth inhibition of human MOLT4 cells assessed as cell growth at 10 uM after 48 hrs by SRB assay relative to control; type: functional; conditions: MOLT-4, 48 h, read-out: Activity
[19] = system: SK-MEL-2; assay: Growth inhibition of human SK-MEL-2 cells assessed as cell growth at 10 uM after 48 hrs by SRB assay relative to control; type: functional; conditions: SK-MEL-2, 48 h, read-out: Activity
[20] = system: BT-549; assay: Growth inhibition of human BT549 cells assessed as cell growth at 10 uM after 48 hrs by SRB assay relative to control; type: functional; conditions: BT-549, 48 h, read-out: Activity
[21] = system: SF-295; assay: Growth inhibition of human SF295 cells assessed as cell growth at 100 uM after 48 hrs by SRB assay relative to control; type: functional; conditions: SF-295, 48 h, read-out: Activity
[22] = system: SK-MEL-2; assay: Growth inhibition of human SK-MEL-2 cells assessed as cell growth at 100 uM after 48 hrs by SRB assay relative to control; type: functional; conditions: SK-MEL-2, 48 h, read-out: Activity
[23] = system: 786-0; assay: Growth inhibition of human 786-0 cells assessed as cell growth at 100 uM after 48 hrs by SRB assay relative to control; type: functional; conditions: 786-0, 48 h, read-out: Activity
[24] = system: NCI-H23; assay: Cytotoxicity against human NCI-H23 cells assessed as growth inhibition after 48 hrs by SRB assay; type: functional; conditions: NCI-H23, 48 h
[25] = system: SF-295; assay: Cytotoxicity against human SF295 cells assessed as growth inhibition after 48 hrs by SRB assay; type: functional; conditions: SF-295, 48 h
[26] = system: SNB-19; assay: Cytotoxicity against human SNB19 cells assessed as growth inhibition after 48 hrs by SRB assay; type: functional; conditions: SNB-19, 48 h
[27] = system: SK-MEL-2; assay: Cytotoxicity against human SK-MEL-2 cells assessed as growth inhibition after 48 hrs by SRB assay; type: functional; conditions: SK-MEL-2, 48 h
[28] = system: SK-MEL-28; assay: Cytotoxicity against human SK-MEL-28 cells assessed as growth inhibition after 48 hrs by SRB assay; type: functional; conditions: SK-MEL-28, 48 h
[29] = system: OVCAR-3; assay: Cytotoxicity against human OVCAR3 cells assessed as growth inhibition after 48 hrs by SRB assay; type: functional; conditions: OVCAR-3, 48 h
[30] = system: SN12C; assay: Cytotoxicity against human SN12C cells assessed as growth inhibition after 48 hrs by SRB assay; type: functional
[31] = system: Hs-578T; assay: Cytotoxicity against human Hs 578T cells assessed as growth inhibition after 48 hrs by SRB assay; type: functional
[32] = read-out: LC50 (the source's name)
[33] = read-out: pLC50 (the source's name) (converted)

Question: COc1ccc2c(c1)CCc1n[nH]c(-c3cc(OC)c(OC)c(OC)c3)c1-2 was tested. Which IC50 [1] did it give?
Answer: 0.001 µM

Question: And the growth at 0.01 µM [2]?
Answer: 23%

Question: What about the growth at 0.01 µM [3] of the same compound?
Answer: 14%

Question: What about the growth at 0.01 µM [4] of the same compound?
Answer: 3%

Question: And the growth at 0.1 µM [5]?
Answer: 53%

Question: What about the growth at 0.1 µM [6] of the same compound?
Answer: -18%

Question: And the growth at 0.1 µM [7]?
Answer: 51%

Question: What about the growth at 0.1 µM [8] of the same compound?
Answer: 35%

Question: And the growth at 0.1 µM [9]?
Answer: 30%

Question: And the growth at 1 µM [10]?
Answer: -16%

Question: And the growth at 1 µM [11]?
Answer: 5%

Question: And the growth at 1 µM [12]?
Answer: 17%

Question: What about the growth at 1 µM [13] of the same compound?
Answer: -9%

Question: What about the growth at 1 µM [14] of the same compound?
Answer: -5%

Question: What about the growth at 1 µM [15] of the same compound?
Answer: 28%

Question: What about the growth at 1 µM [16] of the same compound?
Answer: 69%

Question: What about the growth at 10 µM [17] of the same compound?
Answer: 17%

Question: What about the growth at 10 µM [18] of the same compound?
Answer: 31%

Question: What about the growth at 10 µM [19] of the same compound?
Answer: 38%

Question: What about the growth at 10 µM [20] of the same compound?
Answer: 1%

Question: What about the growth at 100 µM [21] of the same compound?
Answer: -61%

Question: What about the growth at 100 µM [22] of the same compound?
Answer: -51%

Question: And the growth at 100 µM [23]?
Answer: -48%

Question: And the GI50 ([24]; read-out: GI50)?
Answer: < 0.01 µM

Question: And the CC50 [24, 32]?
Answer: > 100 µM

Question: And the TGI ([24]; read-out: TGI)?
Answer: 3.53 µM

Question: What about the GI50 ([24]; read-out: pGI50 (converted)) of the same compound?
Answer: < 0.01 µM

Question: And the CC50 [24, 33]?
Answer: > 100 µM

Question: And the TGI ([24]; read-out: pTGI (converted))?
Answer: 3.55 µM

Question: And the GI50 ([25]; read-out: GI50)?
Answer: < 0.01 µM

Question: And the CC50 [25, 32]?
Answer: 64.5 µM

Question: And the TGI ([25]; read-out: TGI)?
Answer: 3.21 µM

Question: What about the GI50 ([25]; read-out: pGI50 (converted)) of the same compound?
Answer: < 0.01 µM

Question: And the CC50 [25, 33]?
Answer: 64.6 µM

Question: What about the TGI ([25]; read-out: pTGI (converted)) of the same compound?
Answer: 3.24 µM

Question: And the GI50 ([26]; read-out: GI50)?
Answer: < 0.01 µM

Question: And the CC50 [26, 32]?
Answer: > 100 µM

Question: What about the TGI ([26]; read-out: TGI) of the same compound?
Answer: 46.3 µM

Question: And the GI50 ([26]; read-out: pGI50 (converted))?
Answer: < 0.01 µM

Question: What about the CC50 [26, 33] of the same compound?
Answer: > 100 µM

Question: And the TGI ([26]; read-out: pTGI (converted))?
Answer: 46.8 µM

Question: What about the GI50 ([27]; read-out: GI50) of the same compound?
Answer: < 0.01 µM

Question: What about the LC50 ([27]; read-out: LC50) of the same compound?
Answer: 98.7 µM

Question: What about the TGI ([27]; read-out: TGI) of the same compound?
Answer: 26.8 µM

Question: And the GI50 ([27]; read-out: pGI50 (converted))?
Answer: < 0.01 µM

Question: And the LC50 ([27]; read-out: pLC50 (converted))?
Answer: 97.7 µM

Question: And the TGI ([27]; read-out: pTGI (converted))?
Answer: 26.9 µM

Question: What about the GI50 ([28]; read-out: GI50) of the same compound?
Answer: 1.62 µM

Question: And the LC50 (concentration killing 50% of cells) ([28]; read-out: LC50)?
Answer: 68.8 µM

Question: And the TGI ([28]; read-out: TGI)?
Answer: 21.7 µM

Question: And the GI50 ([28]; read-out: pGI50 (converted))?
Answer: 1.62 µM

Question: What about the LC50 (concentration killing 50% of cells) ([28]; read-out: pLC50 (converted)) of the same compound?
Answer: 69.2 µM

Question: What about the TGI ([28]; read-out: pTGI (converted)) of the same compound?
Answer: 21.9 µM

Question: And the GI50 ([29]; read-out: GI50)?
Answer: < 0.01 µM

Question: And the LC50 (50% lethal concentration) ([29]; read-out: LC50)?
Answer: 75.5 µM

Question: And the TGI ([29]; read-out: TGI)?
Answer: 14.7 µM

Question: What about the GI50 ([29]; read-out: pGI50 (converted)) of the same compound?
Answer: < 0.01 µM

Question: And the LC50 (50% lethal concentration) ([29]; read-out: pLC50 (converted))?
Answer: 75.9 µM

Question: And the TGI ([29]; read-out: pTGI (converted))?
Answer: 14.8 µM

Question: What about the GI50 ([30]; read-out: GI50) of the same compound?
Answer: < 0.01 µM

Question: What about the CC50 [30, 32] of the same compound?
Answer: > 100 µM

Question: What about the TGI ([30]; read-out: TGI) of the same compound?
Answer: 22 µM

Question: What about the GI50 ([30]; read-out: pGI50 (converted)) of the same compound?
Answer: < 0.01 µM

Question: What about the CC50 [30, 33] of the same compound?
Answer: > 100 µM

Question: And the TGI ([30]; read-out: pTGI (converted))?
Answer: 21.9 µM

Question: And the GI50 ([31]; read-out: GI50)?
Answer: < 0.01 µM

Question: What about the LC50 ([31]; read-out: LC50) of the same compound?
Answer: > 100 µM

Question: What about the TGI ([31]; read-out: TGI) of the same compound?
Answer: 22.3 µM

Question: What about the GI50 ([31]; read-out: pGI50 (converted)) of the same compound?
Answer: < 0.01 µM

Question: And the LC50 ([31]; read-out: pLC50 (converted))?
Answer: > 100 µM

Question: What about the TGI ([31]; read-out: pTGI (converted)) of the same compound?
Answer: 22.4 µM
